Measurements from ChEMBL document CHEMBL1201862, “PubChem BioAssay data set” (2004).
Values joined by “and” are separate entries in the source; they are usually repeats but may differ in a detail not shown here. Equal entries are not always repeated. Active and inactive are the calls of the source.

Tests used:
[1] = molecular target: T1, Heat shock factor protein 1 (Mus musculus, UniProt P38532); experiment: enhancement of HSF1-driven luciferase signal – cell-based, NIH3T3, luminescence, dose retest, confirmation (AID 435004); format: functional;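 note: stress induced by proteasome inhibitor MG132 added 30 min after compound; luciferase reporter driven by HSF1 response element in NIH3T3 cells; actives raise luminescence as potentiators of the MG132 stress response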
T1 sequence (P38532 whole entry): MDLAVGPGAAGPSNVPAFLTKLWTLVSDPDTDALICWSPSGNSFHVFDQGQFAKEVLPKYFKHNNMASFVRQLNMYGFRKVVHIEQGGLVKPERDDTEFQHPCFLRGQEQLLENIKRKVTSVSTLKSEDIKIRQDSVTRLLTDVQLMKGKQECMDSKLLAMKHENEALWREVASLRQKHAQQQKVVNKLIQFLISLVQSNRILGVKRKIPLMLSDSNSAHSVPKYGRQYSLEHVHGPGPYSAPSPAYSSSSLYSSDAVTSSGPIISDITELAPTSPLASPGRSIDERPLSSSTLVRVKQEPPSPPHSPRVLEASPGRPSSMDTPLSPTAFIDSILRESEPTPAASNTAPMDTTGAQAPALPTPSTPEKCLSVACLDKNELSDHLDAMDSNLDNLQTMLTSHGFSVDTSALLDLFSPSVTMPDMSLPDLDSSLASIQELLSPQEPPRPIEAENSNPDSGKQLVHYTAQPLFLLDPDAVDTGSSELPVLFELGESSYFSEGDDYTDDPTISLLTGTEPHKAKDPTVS

[2] = Luminescence Cell-Based Dose Response HTS to Identify Inhibitors of 5'UTR Stem-Loop Driven Prion Protein mRNA Translation in H4 Neuroglioblastoma Cells. [Related pubchem assays: 1827 (Project Summary), 1813 (Primary HTS)]; format: functional
[3] = alpha-synuclein stem-loop luciferase translation blockers – H4 neuroglioma cells, luminescence, confirmation (AID 1988); format: functional, cell-based
Cytochrome P450 3A4 = Cytochrome P450 3A4 (Homo sapiens, UniProt P08684);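 note: CYP3A4 tested as one member of a cytochrome P450 panel screen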
Cytochrome P450 3A4, sequence (P08684 whole entry): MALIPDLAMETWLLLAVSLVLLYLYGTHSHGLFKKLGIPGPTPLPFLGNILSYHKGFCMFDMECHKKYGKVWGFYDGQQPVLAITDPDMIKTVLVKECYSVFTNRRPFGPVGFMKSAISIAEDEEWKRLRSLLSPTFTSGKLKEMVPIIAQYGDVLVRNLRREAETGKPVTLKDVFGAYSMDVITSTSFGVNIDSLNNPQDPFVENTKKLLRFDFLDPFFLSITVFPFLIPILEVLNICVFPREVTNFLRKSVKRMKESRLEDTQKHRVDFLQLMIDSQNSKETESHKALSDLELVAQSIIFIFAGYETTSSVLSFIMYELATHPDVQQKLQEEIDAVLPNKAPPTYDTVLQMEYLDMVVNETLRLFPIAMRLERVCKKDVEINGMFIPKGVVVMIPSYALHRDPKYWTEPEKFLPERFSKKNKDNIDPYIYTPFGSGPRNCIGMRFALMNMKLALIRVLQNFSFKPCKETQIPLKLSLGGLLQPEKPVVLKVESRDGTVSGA

Cytochrome P450 2C9 = Cytochrome P450 2C9 (Homo sapiens, UniProt P11712)
Cytochrome P450 2C9, sequence (P11712 whole entry): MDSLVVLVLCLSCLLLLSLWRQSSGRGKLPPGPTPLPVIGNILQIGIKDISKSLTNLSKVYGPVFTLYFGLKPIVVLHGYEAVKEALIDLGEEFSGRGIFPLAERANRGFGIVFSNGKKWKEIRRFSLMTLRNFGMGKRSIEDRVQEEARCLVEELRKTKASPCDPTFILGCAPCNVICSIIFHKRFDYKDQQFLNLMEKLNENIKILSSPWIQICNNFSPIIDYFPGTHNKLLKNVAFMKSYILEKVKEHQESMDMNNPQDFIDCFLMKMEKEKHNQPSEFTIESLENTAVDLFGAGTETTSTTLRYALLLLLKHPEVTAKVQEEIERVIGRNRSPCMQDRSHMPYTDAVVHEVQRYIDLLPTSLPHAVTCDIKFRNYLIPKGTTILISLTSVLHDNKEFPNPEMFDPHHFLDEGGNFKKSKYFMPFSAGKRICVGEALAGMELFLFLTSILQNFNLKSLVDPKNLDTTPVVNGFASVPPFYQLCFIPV

Cytochrome P450 2C19 = Cytochrome P450 2C19 (Homo sapiens, UniProt P33261); experiment: Cytochrome panel assay with activity outcomes. Panel member name: p450-cyp2c19 Compounds with AC50 equal or less than 10 uM are considered active; format: functional
Cytochrome P450 2C19, sequence (P33261 whole entry): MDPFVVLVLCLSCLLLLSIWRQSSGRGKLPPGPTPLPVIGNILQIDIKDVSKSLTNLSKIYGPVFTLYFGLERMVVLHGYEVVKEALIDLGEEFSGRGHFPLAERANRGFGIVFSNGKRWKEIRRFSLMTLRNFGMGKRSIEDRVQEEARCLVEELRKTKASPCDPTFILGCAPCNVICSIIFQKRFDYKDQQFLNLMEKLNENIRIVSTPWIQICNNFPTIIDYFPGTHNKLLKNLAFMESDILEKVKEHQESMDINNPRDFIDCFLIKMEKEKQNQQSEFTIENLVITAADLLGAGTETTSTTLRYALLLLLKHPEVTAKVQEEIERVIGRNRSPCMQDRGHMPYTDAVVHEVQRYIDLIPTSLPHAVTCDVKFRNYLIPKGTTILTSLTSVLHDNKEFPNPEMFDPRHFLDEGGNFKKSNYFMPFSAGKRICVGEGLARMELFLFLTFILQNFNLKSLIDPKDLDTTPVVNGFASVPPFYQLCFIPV

Cytochrome P450 2D6 = Cytochrome P450 2D6 (Homo sapiens, UniProt P10635);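 note: CYP2D6 member of a cytochrome P450 panel assay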
Cytochrome P450 2D6, sequence (P10635 whole entry): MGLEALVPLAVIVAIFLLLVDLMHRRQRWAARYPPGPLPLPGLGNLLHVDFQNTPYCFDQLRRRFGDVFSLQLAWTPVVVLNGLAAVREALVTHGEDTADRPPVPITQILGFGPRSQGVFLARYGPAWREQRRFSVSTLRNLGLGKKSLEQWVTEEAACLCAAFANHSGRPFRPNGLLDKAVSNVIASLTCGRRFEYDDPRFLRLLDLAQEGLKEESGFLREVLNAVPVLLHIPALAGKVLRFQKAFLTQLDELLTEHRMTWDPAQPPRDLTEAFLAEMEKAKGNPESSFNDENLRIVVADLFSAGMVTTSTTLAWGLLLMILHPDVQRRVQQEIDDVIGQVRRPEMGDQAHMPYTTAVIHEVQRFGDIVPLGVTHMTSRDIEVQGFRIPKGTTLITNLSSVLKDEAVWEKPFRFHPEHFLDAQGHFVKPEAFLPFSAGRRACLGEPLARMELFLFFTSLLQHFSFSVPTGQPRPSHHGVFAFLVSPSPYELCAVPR

[4] = luciferase reporter signal suppression in cells – H4 neuroglioma cells, luminescence, dose response (AID 1990); format: functional, cell-based
INS1 = experiment: INS-1E survival protection against cytokine death – cell-based, luminescence, retest, dose response (AID 449756); format: functional; details: Rattus norvegicus;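 note: cell death triggered by IL-1 beta plus TNF-alpha plus IFN-gamma mixture; protective hits raise ATP signal compared with cytokine alone wells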
[5] = molecular target: FAD-linked sulfhydryl oxidase ALR (Homo sapiens, UniProt P55789); experiment: ALR-catalysed DTT oxidation blockers – biochemical, H2O2 detection, luminescence, cherry-pick, dose response (AID 493248)
FAD-linked sulfhydryl oxidase ALR, sequence (P55789 whole entry): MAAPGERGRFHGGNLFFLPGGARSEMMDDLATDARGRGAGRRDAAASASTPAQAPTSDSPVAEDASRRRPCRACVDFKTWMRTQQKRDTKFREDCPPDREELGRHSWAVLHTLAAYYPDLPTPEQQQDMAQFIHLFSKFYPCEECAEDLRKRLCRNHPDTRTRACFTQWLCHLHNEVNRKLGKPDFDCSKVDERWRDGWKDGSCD

H4 = experiment: Luminescence Cell-Based Dose Response HTS to Identify Activators of 5'UTR Stem-Loop Driven Prion Protein mRNA Translation in H4 Neuroglioblastoma Cells. [Related pubchem assays: 1829 (Project Summary), 1814 (Primary HTS)]; format: functional; details: Homo sapiens
[6] = Luminescence Cell-Based Dose Response HTS to Identify Activators of Luciferase Translation or Activity in H4 […] Cells. [Related pubchem assays: 1829 (Project Summary), 1814 (Primary HTS)]; format: functional
[7] = Luminescence Cell-Based Dose Confirmation HTS to Identify Activators of 5'UTR Stem-Loop Driven Alpha-Synuclein mRNA Translation in H4 Neuroglioblastoma Cells. [Related pubchem assays: 1829 (Project Summary), 1814 (Primary HTS)]; format: functional
[8] = molecular target: T2, Rac GTPase-activating protein 1 (Homo sapiens, UniProt Q9H0H5); experiment: blockers of MgcRacGAP-driven Rac1 GTP hydrolysis – biochemical, ADP Hunter fluorescence, primary and confirmatory, confirmation (AID 624330); format: functional
T2 sequence (Q9H0H5 whole entry): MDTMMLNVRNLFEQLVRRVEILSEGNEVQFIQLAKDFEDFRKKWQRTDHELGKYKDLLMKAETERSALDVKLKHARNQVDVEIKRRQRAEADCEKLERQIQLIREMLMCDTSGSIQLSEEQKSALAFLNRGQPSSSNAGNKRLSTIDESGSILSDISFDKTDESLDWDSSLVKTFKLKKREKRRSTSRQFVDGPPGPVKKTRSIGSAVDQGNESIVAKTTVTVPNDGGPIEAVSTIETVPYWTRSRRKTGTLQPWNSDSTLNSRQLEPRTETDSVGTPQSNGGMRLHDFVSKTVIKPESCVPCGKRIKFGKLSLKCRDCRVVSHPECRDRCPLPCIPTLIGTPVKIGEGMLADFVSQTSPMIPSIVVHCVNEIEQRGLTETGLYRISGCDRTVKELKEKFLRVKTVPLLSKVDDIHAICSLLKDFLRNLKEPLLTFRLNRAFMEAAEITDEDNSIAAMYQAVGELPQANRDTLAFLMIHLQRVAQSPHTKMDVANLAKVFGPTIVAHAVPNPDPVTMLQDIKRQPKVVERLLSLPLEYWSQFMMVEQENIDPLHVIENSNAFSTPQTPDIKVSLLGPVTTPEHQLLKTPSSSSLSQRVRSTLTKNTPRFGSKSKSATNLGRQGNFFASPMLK

Cytochrome P450 1A2 = molecular target: T3, Cytochrome P450 1A2 (Homo sapiens, UniProt P05177);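 note: PubChem cytochrome P450 panel assay, CYP1A2 panel member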
T3 sequence (P05177 whole entry): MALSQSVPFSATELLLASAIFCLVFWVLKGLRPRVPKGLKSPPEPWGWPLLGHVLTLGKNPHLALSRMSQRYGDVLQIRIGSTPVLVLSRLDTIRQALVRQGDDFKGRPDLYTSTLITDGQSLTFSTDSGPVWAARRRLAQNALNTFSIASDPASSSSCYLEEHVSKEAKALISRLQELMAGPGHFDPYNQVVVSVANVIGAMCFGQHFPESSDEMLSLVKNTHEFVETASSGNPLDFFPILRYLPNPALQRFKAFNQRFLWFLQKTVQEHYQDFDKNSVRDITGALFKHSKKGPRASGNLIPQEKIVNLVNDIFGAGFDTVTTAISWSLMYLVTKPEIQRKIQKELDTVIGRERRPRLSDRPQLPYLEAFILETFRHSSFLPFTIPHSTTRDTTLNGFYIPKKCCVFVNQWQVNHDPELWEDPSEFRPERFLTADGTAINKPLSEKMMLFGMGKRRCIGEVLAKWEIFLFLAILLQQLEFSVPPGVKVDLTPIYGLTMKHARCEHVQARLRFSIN

CC(C)=NN1C(=O)c2ccccc2NC1(C)C
EC50 [1]: > 260 µM (inactive)

C[C@@H]1C(NC(=O)c2ccccc2)CC2CC1C2(C)C (stereo partly drawn)
EC50 [1]: > 260 µM (inactive)

O=C1c2ccccc2C(=O)N1CC(O)COc1ccc(Br)cc1 (stereo not drawn)
EC50 [1]: 64.3 µM (active)

Cc1cc(C)c(NC=C2C(=O)NC(=O)NC2=O)c(C)c1
EC50 [2]: > 60 µM (not active) | EC50 [3]: > 120 µM (not active)

CCOC(=O)/C(C#N)=C\c1ccc(OCC(=O)Nc2ccc(C)cc2C)c(OC)c1
AC50 (Cytochrome P450 3A4): 10 µM (inconclusive) | AC50 (Cytochrome P450 2C9): 25.1 µM (inconclusive)

O=C1[C@@H]2C=CC=CC2=NC(=S)N1CCN1CCC(=C(c2ccc(F)cc2)c2ccc(F)cc2)CC1
AC50 (Cytochrome P450 3A4): 3.16 µM (inconclusive) | AC50 (Cytochrome P450 2C19; read-out: AC50): 10 µM (inconclusive)

N[N-][C+]1c2ccccc2N[C@H]1OC(=O)Nc1cccc(Cl)c1
AC50 (Cytochrome P450 2D6): 3.98 µM (inconclusive) | AC50 (Cytochrome P450 3A4): 5.01 µM (inconclusive) | AC50 (Cytochrome P450 2C19; read-out: AC50): 3.16 µM (inconclusive)

CCc1nnc(NC(=O)c2ccc(S(=O)(=O)NC3CCCCC3)cc2)s1
EC50 [2]: > 120 µM (not active) | EC50 [3]: > 120 µM (not active) | EC50 [4]: > 120 µM (not active)

CCCCn1c(=N)n(CC(=O)c2ccco2)c2ccccc21
AC50 (Cytochrome P450 3A4): 31.6 µM (inconclusive) | AC50 (Cytochrome P450 2C19; read-out: AC50): 15.8 µM (inconclusive)

COc1ccc(-c2cn(CCO)nc2-c2ccc(OC)cc2)cc1
EC50 [2]: > 120 µM (not active) | EC50 [3]: > 120 µM (not active) | EC50 [4]: 16.1 µM (active)

CN(C)c1cc[n+](CC(=O)Nc2ccc(Oc3ccccc3)cc2)cc1
AC50 (INS1): 4.17 µM (active) | EC50 [2]: > 120 µM (not active) | EC50 [3]: 14.9 µM (active) | EC50 [4]: 17.1 µM (active)

O=C(CN(C(=O)c1csnn1)c1ccc(F)c(Cl)c1)NCc1ccc(F)cc1
EC50 [1]: > 260 µM (inactive)

CCCc1cn(S(=O)(=O)c2ccc(OC)cc2OC)nc1N
AC50 [5]: 9.53 µM (active)

O=C(NCCCN1CCOCC1)c1cc2c(s1)CSC2
AC50 (Cytochrome P450 3A4): 15.8 µM (inconclusive)

COC(=O)c1cc(-c2c(C)nn(-c3ccccc3)c2C)[nH]n1
EC50 (H4): 11.2 µM (active) | EC50 [6]: 11.5 µM (active) | AC50 [5]: 1.2 µM (active) | EC50 [7]: 11.8 µM (active)

COc1ccc(-c2nc(Cn3c(SCc4ccc(F)cc4)nc4ccncc43)c(C)o2)cc1OC
EC50 [1]: 34.7 µM (active)

Cc1cc2c(cc1C)-c1nnnn1C(C)(C)C2
EC50 [1]: > 260 µM (inactive)

Cc1cnc(NC(=O)C(C)N2CCN(C)CC2)s1 (stereo not drawn)
IC50 [8]: 80.4 µM (active)

O=C(NCCC[N+]1=CC=N[C@H]1c1ccccc1)N1CCCc2nc(-c3ccc(Br)cc3)ccc21
AC50 (Cytochrome P450 3A4): 3.16 µM (inconclusive)

CC(=O)N1CCC2(CCCN(C(=O)Nc3cccc(F)c3)C2)CC1
AC50 (Cytochrome P450 3A4): 31.6 µM (inconclusive)

Cc1noc(C)c1-c1cc(NCc2cccs2)ncn1
AC50 (Cytochrome P450 2D6): 20 µM (inconclusive) | AC50 (Cytochrome P450 3A4): 31.6 µM (inconclusive) | AC50 (Cytochrome P450 2C19): inconclusive

O=C(CN1C(=O)C2CC=CCC2C1=O)Nc1nc2ccc(F)cc2s1 (stereo not drawn)
AC50 [5]: 0.494 µM (active)

CSC1=N/C(=C\c2ccc(C)cc2)C(=O)S1
AC50 (Cytochrome P450 3A4): 39.8 µM (inconclusive)

O=C(Nc1ccccc1[N+](=O)[O-])C1C(c2ccccc2)=C1c1ccccc1
AC50 (Cytochrome P450 3A4): 20 µM (inconclusive)

CC(C)[C@@H](OCc1ccccc1)[C@H](C)/C=N\O[C@@H](C)c1cn([C@H](CO)Cc2ccccc2)nn1
AC50 (Cytochrome P450 3A4): 3.16 µM (inconclusive) and 3.98 µM (inconclusive)

Cc1ccc(NC(=O)Cc2nc(CSc3nnc(-c4ccc5c(c4)OCO5)o3)cs2)cc1
EC50 (H4): 6.97 µM (active) | EC50 [6]: 53.6 µM (active) | EC50 [7]: 82.5 µM (active)

Cc1ccc(S(=O)(=O)N2CCC(=O)N(C(COCc3ccc(Cl)cc3)Cc3ccccc3)CC2)cc1 (stereo not drawn)
EC50 [2]: 39.1 µM (active) | EC50 [3]: 36.4 µM (active) | EC50 [4]: > 120 µM (not active)

C=CCc1cc(C=O)cc(OC)c1OCc1ccc(Cl)cc1
AC50 (Cytochrome P450 3A4): 17.8 µM (inconclusive)

CCN1CCN(CC(=O)Nc2ccc(C)c(Br)c2)CC1
IC50 [8]: 95.7 µM (active)

CC(=O)/C(=C\c1ccccc1F)C(=O)c1ccccc1
AC50 (Cytochrome P450 1A2): 5.01 µM (inconclusive) | AC50 (Cytochrome P450 3A4): 3.16 µM (inconclusive) | AC50 (Cytochrome P450 2C9): 6.31 µM (inconclusive)

Cc1nc(SCc2cccc(F)c2)nc(O)c1C#N
AC50 [5]: 9.69 µM (active)

O=S(=O)(Nc1ccc(N2CCCCC2)cc1)c1ccc(F)c(F)c1
AC50 [5]: 4.17 µM (active)

S=C(NC1CCCCC1)NC1CC2C=CC1C2 (stereo not drawn)
EC50 [1]: > 260 µM (inactive)

COc1cc(CC(=O)OCC(=O)Nc2ccc(N(C)C)cc2)cc(OC)c1OC
IC50 [8]: 53.3 µM (active)

CN(C)c1cc(NC(=O)CN2CCCC2)c2ccccc2n1
IC50 [8]: 41.6 µM (active)

COc1ccc(C2CC(=O)c3cnc(N4CCc5ccccc54)nc3C2)cc1OC (stereo not drawn)
EC50 [1]: > 260 µM (inactive)

O=C(Cn1cccn1)N1CCCC(Nc2ccc(F)c(F)c2)C1 (stereo not drawn)
AC50 [5]: 1.92 µM (active)

COc1cc(C(C)=NNC(=O)c2ccncc2)ccc1O
IC50 [8]: 49.6 µM (active)

CCN(CCNC(=O)C1CCN(S(=O)(=O)CC)CC1)c1ccccc1
AC50 [5]: 0.013 µM (active)

Cc1ccn(Cc2nnc(S)n2Cc2ccccc2)n1
AC50 [5]: 8.59 µM (active)

CCCn1nc(Oc2nc(NCC)nc(NC(C)C)n2)ccc1=O
AC50 (Cytochrome P450 3A4): 0.00562 µM (inconclusive) | AC50 (Cytochrome P450 2C19; read-out: AC50): 39.8 µM (inconclusive)

Oc1ccc(/C(Cc2ccccn2)=N\Nc2ccccc2)c(O)c1
AC50 [5]: 0.332 µM (active)

O=C1CSC(=S)N1/N=C/c1cccc(C(F)(F)F)c1
EC50 [1]: > 260 µM (inactive)

C/C(=N\NC(=O)C1=NNC(=O)C1C)c1cccs1 (stereo not drawn)
EC50 (H4): 29.9 µM (active) | EC50 [6]: > 120 µM (not active) | EC50 [7]: 13 µM (active)

C/C(=N/NC(=O)C1CCN(S(=O)(=O)c2ccc(C)cc2)CC1)c1cccc([N+](=O)[O-])c1
EC50 [2]: 71 µM (active) | EC50 [3]: 48 µM (active) | EC50 [4]: 22.9 µM (active)

COc1cc(/C=N/NC(=O)CN(Cc2ccco2)S(=O)(=O)c2ccccc2)ccc1O
IC50 [8]: 40 µM (active) | AC50 [5]: 1.13 µM (active)

CN(C)c1ccc(/C=N/O)cc1
IC50 [8]: 21.8 µM (active)

C=Cc1ncc(OC)c2c1[nH]c1ccccc12
EC50 [1]: 9.2 µM (active)
